Legend:
[1] = biological target: Muscarinic acetylcholine receptor; assay: In vitro inhibition of [3H]quinuclidinyl benzilate (QNB) binding to muscarinic receptors of rat cerebral cortex; type: tissue-based
[2] = biological target: Muscarinic acetylcholine receptor (Rattus norvegicus) (UniProt P08482+P08483+P08485+P08911+P10980); assay: Relative affinities compared to oxotremorine-M (OXO-M) and [3H]quinuclidinyl benzilate (QNB) for muscarinic receptors; type: protein assay
[3] = biological target: Muscarinic acetylcholine receptor; assay: In vitro inhibition of oxotremorine-M (OXO-M) binding to muscarinic receptors of rat cerebral cortex; type: tissue-based
[4] = LogD value represents the distribution coefficient at pH 7.3.; type: physicochemical; details: octanol/water
Rattus norvegicus [5] = assay: The effective dose required to produce a change in the mean power spectrum of the EEG equivalent to that of a standard dose (0.32 mg/kg) of arecoline on iv administration; type: functional
Rattus norvegicus [6] = assay: Effective dose required to cause 50% fall in mean blood pressure (BP) by the compound on iv administration; type: functional
[7] = Compound was evaluated for its dissociation constant.; type: ADME
[8] = Ratio of 50% fall in mean blood pressure (BP) to rhythmical slow wave activity (RSA) was determined; type: functional
[9] = Partition coefficient (logP); type: physicochemical; details: octanol/water

SMILES	IC50 [1] [µM]	Ratio [2]	IC50 [3] [µM]	logD [4]	ED Arec (Rattus norvegicus [5]) [mg/kg]	ED50 (Rattus norvegicus [6]) [mg/kg]	pKa [7]	Ratio [8]	logP [9]
CO/N=C(\Br)C12CCCN(CC1)C2 (centres undefined)	2.3	12	0.19						
CO/N=C(\Cl)C12CCCN(CC1)C2 (centres undefined)	3	42	0.072	0.18	0.029	0.32	9.24	11	2.12
CO/N=C(\C#N)[C@H]1CN2CCC1C2 (some centres undefined)	2.3		0.023						
CO/N=C(\Br)C12CCN(CC1)C2	8.1	51	0.16						
CO/N=C(\C)C12CCCN(CC1)C2 (centres undefined)				-1.13	0.068	0.068	10.1	1	1.65
CO/N=C(\Cl)[C@H]1CN2CC[C@H]1C2	3	47	0.064						
CO/N=C(\C#N)C12CCN(CC1)C2	1.95	103	0.019						
CO/N=C(\F)C12CCCN(CC1)C2 (centres undefined)	2.4	56	0.043	-0.76	0.012	0.03	9.06	2.5	1.01
CO/N=C(\F)[C@H]1CN2CC[C@H]1C2	3.1	344	0.009						
CO/N=C(\C)C1CN2CCC1CC2 (centres undefined)				-1.09	0.31	> 0.1	10.3	>0.35	1.88
CO/N=C(\Cl)C12CCN(CC1)C2	8.5	167	0.051						
CO/N=C(\Cl)C1CN2CCC1CC2 (centres undefined)	1.1	16	0.069						
CO/N=C(\Br)[C@H]1CN2CC[C@H]1C2	3	51	0.059						
CO/N=C(\F)C12CCN(CC1)C2	15.5	352	0.044						
CO/N=C(\C#N)C12CCCN(CC1)C2 (centres undefined)	0.22		0.011	-0.18	0.005	0.02	8.96	4	1.49
CO/N=C(\C#N)C1CN2CCC1CC2 (centres undefined)	0.47	14	0.033	-0.11	0.052	> 0.56	8.96	>10.8	1.56
CO/N=C(\F)C1CN2CCC1CC2 (centres undefined)	2	65	0.034						
